Laboratory results from patent US20250041577A1, “SHORT-PULSE SONODYNAMIC TREATMENT APPARATUS” (Insightec, Ltd., priority 2021, published 2025).
Where two headings read alike, the source gives them in different places.

Legend:
[1] = Plasma and blood pharmacokinetics of 5-ALA and PPIX after IV SONALA-001 (LC-MS/MS); format: in vivo; conditions: human, plasma; 10 mg/kg IV Sonala-001; recurrent GBM patients; read-out: median Cmax for 5-ALA in plasma
Procedure: Six hours prior to MRgFUS, adult patients with recurrent GBM are administered SONALA-001 (10 mg/kg), an investigational IV formulation of […]. Oral […] is an FDA- and […] agent used in fluorescence-guided surgery to visualize glioma infiltration and maximize extent of resection. LCMS/MS methods were developed to determine the levels of […] and PPIX in plasma and blood following IV administration of SONALA-001. Samples were analyzed using SCIEX ExionLC UHPLC system and the detection was performed on SCIEX QTRAP 6500+ mass spectrometer by multiple reaction monitoring mode to monitor the precursor-to-product ion transitions in positive electrospray ionization mode.

[2] = Drug and device safety of 5-ALA SDT in recurrent GBM patients (Phase 0/1); format: in vivo, human; conditions: three adult recurrent GBM patients
Procedure: Six hours prior to MRgFUS, adult patients with recurrent GBM are administered SONALA-001 (10 mg/kg), an investigational IV formulation of […]. Oral […] is an FDA- and […] agent used in fluorescence-guided surgery to visualize glioma infiltration and maximize extent of resection. The […] Model 4000 Type-2 system is an investigational MRgFUS with a 1000-element transducer utilizing real-time MR imaging during treatment delivery. It includes the same monitoring capabilities as the ablative, FDA-approved Type-1 system for essential tremor and tremor-dominant Parkinson's Disease. However, the Type-2 device can target a large range of brain anatomy and operates at relatively low ultrasound frequencies and intensities, preventing tissue heating when inducing sonoluminescence. Intra-procedural MR thermometry automatically triggers an auto-stop if any tissue approaches ablative temperatures. […] Patients must have completed standard-of-care chemotherapy and radiotherapy prior to radiographic recurrence. In a Dose-Escalation Arm, 9-18 patients are assigned to one of three ascending acoustic energy doses of […], measured at transducer surface), followed by a four-day interval until tumor resection. In each patient, half the tumor volume, including Gadolinium-enhancing and non-enhancing tumor, is targeted with MRgFUS and the other half serves as an internal control. […]

[3] = human, in vivo
Excerpt: Performed similarly to Example 1 with same study drug but for Diffuse Intrinsic Pontine Glioma (DIPG) and with typically only radiation therapy performed prior.
Performed similarly to Example 1 but with an increase in the number of subspots per sonication (32 subspots). Targets were overlapped with a 2.0-3.0 mm spot to spot separation and Duty Cycle within 4-32% throughout the study. Pulse duration ranged from 0.0002 to 0.002 second.
Similar to Example 1, this multi-center, non-randomized, open label, first-in-pediatric Phase 1/2 study is a drug dose (5, 10, or 15 mg/kg SONALA-001) and focused ultrasound energy (200J, 400J, or 800J) escalation study containing 18-24 subjects, 9 cohorts of approximately 3 patients each. These pediatric patients with DIPG must have completed standard-of-care radiotherapy prior to radiographic treatment. No resection due to location but biopsy can be obtained. In the first patient, half of the Pons volume is targeted with MRgFUS and the other half serves as an internal control for safety. If no DLTs or any grade intracranial hemorrhage and any clinical symptoms (CTCAE, Version 5.0, i.e., intracranial hemorrhage Grades 2-5) are observed, the next patients will receive treatment over the entire pons. The intervention model will be sequential assignment using a Bayesian optimal interval (BOIN) dose escalation method. […]

NCC(=O)CCC(=O)O [5-ALA, 5-aminolevulinic acid]
Cmax [1]: 307 µM | 5-ALA-related photosensitivity [2]: No patient demonstrated 5-ALA-related photosensitivity | 5-ALA-related photosensitivity [3]: No patient demonstrated 5-ALA-related photosensitivity
